This note sets out measurements from patent US7557116B2, “Substance which exhibits antiviral and antibacterial activity and is based on derivatives of 2,8-dithioxo-1H-pyrano[2,3d 6,5-d′]dipyrimidyne and 10-aza-analogue thereof” (priority 2003, dated 2009).

Common to all, as to format: cell-based
Assay [1] concerns Human Immunodeficiency Virus Type 1. The experiment in a line: Anti-HIV activity: protection of MT4 T-lymphoblastoid cells (IFA). The procedure:
(§1) Activity against the Human immunodeficiency Virus (HIV) was also determined and, more specifically, the compounds antiviral effectiveness in protecting the T-lymphoblastoid cells MT4 from being infected by the virus-containing liquid of HTHIV27 cultures. The cells infected by the virus were analyzed according to the following methods: (1) An indirect immunofluorescence (IFA) with a polyclonal anti-serum was received from an HIV Infected human (the antibody titer in the IFA was 1:1000000) and, (2) A competitive IFA was utilized with monoclonal antibodies (MonAb) to p24 HIV and a polyclonal substrate. A solution of 1:540 was used in the tests. Azidothymidin (AZT) was used as the control.
The results documented in the table shown in TABLE 6 evidence that the compounds tested inhibit the reproduction of the Human Immunodeficiency Virus Type 1.

Assay [2] has as its system Human Immunodeficiency Virus. The experiment in a line: Anti-HIV activity alone and in combination with azidothymidin in MT4 cells. The procedure:
as §1, with “[…] The methods utilized to analyze the compounds effectiveness were the same” for “Azidothymidin (AZT) was used”, “foregoing methods.” for “control.”

The test system of a further assay is Influenza virus A. Particulars: Influenza virus A; 48 hours at 33-34 C; ineffective when IN less than 1.0.
For assay [3], the system named is Chlamydia trachomatis D323. The experiment in a line: Protection of cell culture from Chlamydia trachomatis (immunofluorescence, cytoplasmatic inclusions). An excerpt:
The antiviral activity of the claimed compounds were also all tested against the Chlemydia trachomatis. The effects of the claimed compounds on the Chlamydia trachomatis are charted in TABLE 4. A relative strain of Chlamydia trachomatis D323 was used to test the claimed compounds. The strain, derived from a patient with Chlamydia urethritis, comprised a morphology and a physiological activity characteristic of and representative of that type. An infection dose of Chlamydia having a concentration of 1/10^6 cells/ml was introduced into a cell culture. Immunofluorescence (MicroTrack Chlamydia trachomatis Direct Specimen Test) was conducted to determine the significance of the chlamydial cytoplasmatic inclusions (CPI). A CylaMonoScreen was conducted to obtain the chlamydia antigens. The monolayer state and the number of cells with CPI were compared to the control to determine the effects the claimed compounds have on the chlamydia. The number of unchanged cells in 100 visual fields were counted utilizing a special net on a microscopic eyepiece.

For the next assay, the system named is Influenza virus B. Particulars: Influenza virus B; 72 hours at 33-34 C; ineffective when IN less than 1.0.

On to `Cc1cn([C@H]2C[C@H](N=[N+]=[N-])[C@@H](CO)O2)c(=O)[nH]c1=O` [AZT, Azidothymidin, reference compound], for which the “Level of inhibition of virus reproduction” value in assay [1] (5 mg/l) turned out to be 100%; in assay [1] (50 mg/l), 100%; in assay [1] (100 mg/l) it was 100%; in assay [2] (0.05 mg/l), 50%; in assay [2] (5.0 mg/l), 100%.

A word on the inhibition: it is the relative decrease from the control value, in per cent. Turning to `O=[N+]([O-])c1ccc(C2c3c(O)nc(=S)[nH]c3Oc3[nH]c(=S)nc(Cl)c32)cc1` (centres unmarked) [Ib, 4-chlorine-6-hydroxi-5-(4-nitrophenyl)-5,9-dihydro-1H-pyrano[2,3-d: 6,5-d′]dipyrimidine-2,8-dition], the inhibition at 5 µg/mL in assay [1] (Human immunodeficiency virus 1, 5 mg/l, read-out: Level of inhibition of virus reproduction) came to 70%; in assay [2] (Human immunodeficiency virus 1, 5.0 mg/l, read-out: Level of inhibition of virus reproduction) it was 70%. In addition, the inhibition at 50 µg/mL in assay [1] (Human immunodeficiency virus 1, 50 mg/l, read-out: Level of inhibition of virus reproduction) stood at 90%. The inhibition at 100 µg/mL in assay [1] (Human immunodeficiency virus 1, 100 mg/l, read-out: Level of inhibition of virus reproduction) was 100%. Further, the Index of neutralization in the assay with Influenza virus A and with Influenza virus B was 0.5 throughout. The “Percentage of cells' defense from C. trachomatis” value in assay [3] (compound 30 mg/l) stood at 60%; in assay [3] (compound 100 mg/l), 80%. In assay [2] (Human immunodeficiency virus 1, 0.5 mg/l, read-out: Level of inhibition of virus reproduction), the inhibition at 0.5 µg/mL worked out at 20%.
